Laboratory results from patent US10421761B2, “Compounds for kinase modulation, and indications therefor” (Plexxikon Inc., priority 2013, dated 2019).
Like-named read-outs stand apart in the source and are kept apart here.

Test system: B9 cells

Structure (SMILES): CCCS(=O)(=O)Nc1ccc(F)c(C(=O)c2c[nH]c3ncc(-c4ccc(Cl)cc4)cc23)c1F [vemurafenib]
- probe 1416811_s_at response, Ctla2a /// Ctla2b (cytotoxic T lymphocyte-associated protein 2 alpha /// cytotoxic T lymphocyte-associated protein 2 beta): 1.92
- probe 1452352_at response, Ctla2b (cytotoxic T lymphocyte-associated protein 2 beta): 2.37
- expression of gene probe 1416454_s_at (Acta2) (B9 cells, Repl. 1): 0.23
- expression of gene probe 1416612_at (Cyp1b1) (B9 cells, Repl. 1): 0.19
- expression of gene probe 1418240_at (Gbp2) (B9 cells, Repl. 1): 0.30
- expression of gene probe 1418497_at (Fgf13) (B9 cells, Repl. 1): 0.39
- expression of gene probe 1419089_at (Timp3) (B9 cells, Repl. 1): 0.26
- expression of gene probe 1427183_at (Efemp1) (B9 cells, Repl. 1): 0.30
- expression of gene probe 1427747_a_at (Lcn2) (B9 cells, Repl. 1): 0.36
- expression of gene probe 1435906_x_at (Gbp2) (B9 cells, Repl. 1): 0.21
- expression of gene probe 1438931_s_at (LOC100047324 /// Sesn1) (B9 cells, Repl. 1): 0.35
- expression of gene probe 1438988_x_at (Hn1) (B9 cells, Repl. 1): 0.26
- expression of gene probe 1440147_at (Lgi2) (B9 cells, Repl. 1): 0.34
- expression of gene probe 1448734_at (Cp) (B9 cells, Repl. 1): 0.31
- expression of gene probe 1449227_at (Ch25h) (B9 cells, Repl. 1): 0.25
- expression of gene probe 1449335_at (Timp3) (B9 cells, Repl. 1): 0.24
- expression of gene probe 1449340_at (Sostdc1) (B9 cells, Repl. 1): 0.17
- expression of gene probe 1449815_a_at (Ssbp2) (B9 cells, Repl. 1): 0.38
- expression of gene probe 1450618_a_at (Sprr2a) (B9 cells, Repl. 1): 0.36
- expression of gene probe 1460250_at (Sostdc1) (B9 cells, Repl. 1): 0.23
- expression of gene probe 1416454_s_at (Acta2) (B9 cells, Repl. 2): 0.20
- expression of gene probe 1416612_at (Cyp1b1) (B9 cells, Repl. 2): 0.16
- expression of gene probe 1418240_at (Gbp2) (B9 cells, Repl. 2): 0.28
- expression of gene probe 1418497_at (Fgf13) (B9 cells, Repl. 2): 0.38
- expression of gene probe 1419089_at (Timp3) (B9 cells, Repl. 2): 0.31
- expression of gene probe 1427183_at (Efemp1) (B9 cells, Repl. 2): 0.37
- expression of gene probe 1427747_a_at (Lcn2) (B9 cells, Repl. 2): 0.35
- expression of gene probe 1435906_x_at (Gbp2) (B9 cells, Repl. 2): 0.30
- expression of gene probe 1438931_s_at (LOC100047324 /// Sesn1) (B9 cells, Repl. 2): 0.33
- expression of gene probe 1438988_x_at (Hn1) (B9 cells, Repl. 2): 0.27
- expression of gene probe 1440147_at (Lgi2) (B9 cells, Repl. 2): 0.38
- expression of gene probe 1448734_at (Cp) (B9 cells, Repl. 2): 0.30
- expression of gene probe 1449227_at (Ch25h) (B9 cells, Repl. 2): 0.29
- expression of gene probe 1449335_at (Timp3) (B9 cells, Repl. 2): 0.36
- expression of gene probe 1449340_at (Sostdc1) (B9 cells, Repl. 2): 0.20
- expression of gene probe 1449815_a_at (Ssbp2) (B9 cells, Repl. 2): 0.38
- expression of gene probe 1450618_a_at (Sprr2a) (B9 cells, Repl. 2): 0.41
- expression of gene probe 1460250_at (Sostdc1) (B9 cells, Repl. 2): 0.20
- probe 1415828_a_at response, Serp1 (stress-associated endoplasmic reticulum protein 1) (Repl. 1, B9 cells): 2.05
- probe 1415936_at response, Bcar3 (breast cancer anti-estrogen resistance 3) (Repl. 1, B9 cells): 2.21
- probe 1416129_at response, Errfi1 (ERBB receptor feedback inhibitor 1) (Repl. 1, B9 cells): 3.31
- probe 1416246_a_at response, Coro1a (coronin, actin binding protein 1A) (Repl. 1, B9 cells): 1.90
- probe 1416325_at response, Crisp 1 (cysteine-rich secretory protein 1) (Repl. 1, B9 cells): 5.15
- probe 1416401_at response, Cd82 (CD82 antigen) (Repl. 1, B9 cells): 2.87
- probe 1416488_at response, Ccng2 (cyclin G2) (Repl. 1, B9 cells): 2.23
- probe 1416527_at response, Rab32 (RAB32, member RAS oncogene family) (Repl. 1, B9 cells): 0.42
- probe 1416811_s_at response, Ctla2a /// Ctla2b (cytotoxic T lymphocyte-associated protein 2 alpha /// cytotoxic T lymphocyte-associated protein 2 beta) (Repl. 1, B9 cells): 2.28
- probe 1417065_at response, Egr1 (early growth response 1) (Repl. 1, B9 cells): 4.13
- probe 1417130_s_at response, Angptl4 (angiopoietin-like 4) (Repl. 1, B9 cells): 3.10
- probe 1417328_at response, Ercc1 (excision repair cross-complementing rodent repair deficiency, complementation group 1) (Repl. 1, B9 cells): 2.20
- probe 1417488_at response, Fosl1 (fos-like antigen 1) (Repl. 1, B9 cells): 2.09
- probe 1417494_a_at response, Cp (ceruloplasmin) (Repl. 1, B9 cells): 0.39
- probe 1417495_x_at response, Cp (ceruloplasmin) (Repl. 1, B9 cells): 0.48
- probe 1417533_a_at response, Itgb5 (integrin beta 5) (Repl. 1, B9 cells): 0.50
- probe 1417625_s_at response, Cxcr7 (chemokine (C-X-C motif) receptor 7) (Repl. 1, B9 cells): 2.03
- probe 1417677_at response, Opn3 (opsin 3) (Repl. 1, B9 cells): 2.18
- probe 1417812_a_at response, Lamb3 (laminin, beta 3) (Repl. 1, B9 cells): 2.60
- probe 1417837_at response, Phlda2 (pleckstrin homology-like domain, family A, member 2) (Repl. 1, B9 cells): 2.26
- probe 1417902_at response, Slc19a2 (solute carrier family 19 (thiamine transporter), member 2) (Repl. 1, B9 cells): 2.00
- probe 1417962_s_at response, Ghr (growth hormone receptor) (Repl. 1, B9 cells): 2.19
- probe 1418349_at response, Hbegf (heparin-binding EGF-like growth factor) (Repl. 1, B9 cells): 3.29
- probe 1418350_at response, Hbegf (heparin-binding EGF-like growth factor) (Repl. 1, B9 cells): 2.66
- probe 1418538_at response, Kdelr3 (KDEL (Lys-Asp-Glu-Leu) endoplasmic reticulum protein retention receptor 3) (Repl. 1, B9 cells): 2.08
- probe 1418539_a_at response, Ptpre (protein tyrosine phosphatase, receptor type, E) (Repl. 1, B9 cells): 1.94
- probe 1419149_at response, Serpine1 (serine (or cysteine) peptidase inhibitor, clade E, member 1) (Repl. 1, B9 cells): 2.13
- probe 1419188_s_at response, Ccl27a /// Gm13306 (chemokine (C-C motif) ligand 27A /// predicted gene 13306) (Repl. 1, B9 cells): 2.62
- probe 1419317_x_at response, Lce3c (late cornified envelope 3C) (Repl. 1, B9 cells): 2.53
- probe 1419322_at response, Fgd6 (FYVE, RhoGEF and PH domain containing 6) (Repl. 1, B9 cells): 2.60
- probe 1419529_at response, Il23a (interleukin 23, alpha subunit p19) (Repl. 1, B9 cells): 2.84
- probe 1419671_a_at response, Il17rc (interleukin 17 receptor C) (Repl. 1, B9 cells): 0.49
- probe 1419722_at response, Klk8 (kallikrein related-peptidase 8) (Repl. 1, B9 cells): 2.02
- probe 1419816_s_at response, Errfi1 (ERBB receptor feedback inhibitor 1) (Repl. 1, B9 cells): 3.87
- probe 1420352_at response, Prss22 (protease, serine, 22) (Repl. 1, B9 cells): 3.07
- probe 1420380_at response, Cc12 (chemokine (C-C motif) ligand 2) (Repl. 1, B9 cells): 0.37
- probe 1420407_at response, Ltb4r1 (leukotriene B4 receptor 1) (Repl. 1, B9 cells): 2.29
- probe 1420450_at response, Mmp10 (matrix metallopeptidase 10) (Repl. 1, B9 cells): 3.42
- probe 1420537_at response, Kctd4 (potassium channel tetramerisation domain containing 4) (Repl. 1, B9 cells): 2.36
- probe 1420760_s_at response, Ndrg1 (N-myc downstream regulated gene 1) (Repl. 1, B9 cells): 1.90
- probe 1420913_at response, Slco2a1 (solute carrier organic anion transporter family, member 2a1) (Repl. 1, B9 cells): 1.92
- probe 1420955_at response, Vsnl1 (visinin-like 1) (Repl. 1, B9 cells): 0.38
- probe 1421134_at response, Areg (amphiregulin) (Repl. 1, B9 cells): 4.28
- probe 1421269_at response, Ugcg (UDP-glucose ceramide glucosyltransferase) (Repl. 1, B9 cells): 2.46
- probe 1421279_at response, Lamc2 (laminin, gamma 2) (Repl. 1, B9 cells): 2.23
- probe 1421403_at response, Pi15 (peptidase inhibitor 15) (Repl. 1, B9 cells): 2.04
- probe 1421551_s_at response, Ifi202b (interferon activated gene 202B) (Repl. 1, B9 cells): 3.58
- probe 1421668_x_at response, Speer3 (spermatogenesis associated glutamate (E)-rich protein 3) (Repl. 1, B9 cells): 2.74
- probe 1421679_a_at response, Cdkn1a (cyclin-dependent kinase inhibitor 1A (P21)) (Repl. 1, B9 cells): 4.27
- probe 1421888_x_at response, Aplp2 (amyloid beta (A4) precursor-like protein 2) (Repl. 1, B9 cells): 0.65
- probe 1421943_at response, Tgfa (transforming growth factor alpha) (Repl. 1, B9 cells): 1.93
- probe 1422028_a_at response, Ets1 (E26 avian leukemia oncogene 1, 5′ domain) (Repl. 1, B9 cells): 2.13
- probe 1422101_at response, Tnfrsf23 (tumor necrosis factor receptor superfamily, member 23) (Repl. 1, B9 cells): 2.04
- probe 1422138_at response, Plau (plasminogen activator, urokinase) (Repl. 1, B9 cells): 2.73
- probe 1422139_at response, Plau (plasminogen activator, urokinase) (Repl. 1, B9 cells): 2.45
- probe 1422222_at response, Ivl (involucrin) (Repl. 1, B9 cells): 2.50
- probe 1422240_s_at response, Sprr2h (small proline-rich protein 2H) (Repl. 1, B9 cells): 1.95
- probe 1422273_at response, Mmp1b (matrix metallopeptidase 1b (interstitial collagenase)) (Repl. 1, B9 cells): 3.30
- probe 1422324_a_at response, Pthlh (parathyroid hormone-like peptide) (Repl. 1, B9 cells): 2.11
- probe 1422537_a_at response, Id2 (inhibitor of DNA binding 2) (Repl. 1, B9 cells): 0.53
- probe 1422771_at response, Smad6 (MAD homolog 6 (Drosophila)) (Repl. 1, B9 cells): 0.46
- probe 1422924_at response, Tnfsf9 (tumor necrosis factor (ligand) superfamily, member 9) (Repl. 1, B9 cells): 2.01
- probe 1423017_a_at response, Il1rn (interleukin 1 receptor antagonist) (Repl. 1, B9 cells): 2.63
- probe 1423543_at response, Swap70 (SWA-70 protein) (Repl. 1, B9 cells): 1.88
- probe 1423597_at response, Atp8a1 (ATPase, aminophospholipid transporter (APLT), class I, type 8A, member 1) (Repl. 1, B9 cells): 2.02
- probe 1423635_at response, Bmp2 (bone morphogenetic protein 2) (Repl. 1, B9 cells): 2.41
- probe 1423690_s_at response, Gpsm1 (G-protein signalling modulator 1 (AGS3-like, C. elegans)) (Repl. 1, B9 cells): 3.37
- probe 1423933_a_at response, 1600029D21Rik (RIKEN cDNA 1600029D21 gene) (Repl. 1, B9 cells): 2.06
- probe 1424022_at response, Osgin1 (oxidative stress induced growth inhibitor 1) (Repl. 1, B9 cells): 2.27
- probe 1424090_at response, Sdcbp2 (syndecan binding protein (syntenin) 2) (Repl. 1, B9 cells): 4.08
- probe 1424306_at response, Elovl4 (elongation of very long chain fatty acids (FEN1/Elo2, SUR4/Elo3, yeast)-like 4) (Repl. 1, B9 cells): 2.51
- probe 1424383_at response, Tmem51 (transmembrane protein 51) (Repl. 1, B9 cells): 2.58
- probe 1424471_at response, Rapgef3 (Rap guanine nucleotide exchange factor (GEF) 3) (Repl. 1, B9 cells): 2.18
- probe 1424638_at response, Cdkn1a (cyclin-dependent kinase inhibitor 1A (P21)) (Repl. 1, B9 cells): 2.76
- probe 1424783_a_at response, Ugt1a1 /// Ugt1a10 /// Ugt1a2 /// Ugt1a5 /// Ugt1a6a /// Ugt1a6b /// Ugt1aTc /// Ugt1a9 (UDP glucuronosyltransferase 1 family) (Repl. 1, B9 cells): 0.39
- probe 1425452_s_at response, Fam84a (family with sequence similarity 84, member A) (Repl. 1, B9 cells): 2.41
- probe 1425660_at response, Btbd3 (BTB (POZ) domain containing 3) (Repl. 1, B9 cells): 2.08
- probe 1426037_a_at response, Rgs16 (regulator of G-protein signaling 16) (Repl. 1, B9 cells): 3.19
- probe 1426181_a_at response, I124 (interleukin 24) (Repl. 1, B9 cells): 5.52
- probe 1426260_a_at response, Ugt1a1 /// Ugt1a10 /// Ugt1a2 /// Ugt1a5 /// Ugt1a6a /// Ugt1a6b /// Ugt1aTc /// Ugt1a9 (UDP glucuronosyltransferase 1 family) (Repl. 1, B9 cells): 0.39
